Reference: patent US20070026080A1, “Manufacturing process for tigecycline” (Wyeth, priority 2005, published 2007)

Test: Strength and degradation profile of tigecycline 20 mg/mL bulk solutions by reversed phase HPLC (effect of temperature, time, pH, dissolved oxygen; Runs A to O)
Assay type: physicochemical
Details: 20 mg/mL
Description: The contents of the sample vials are dissolved in diluent. The sample solution is diluted, if necessary, and chromatographed on a reversed phase column using gradient elution. Impurities are determined by comparing the impurity peak areas in the sample preparation chromatogram to the average area of tigecycline peaks in the standard preparation chromatograms obtained concomitantly.
Chromatographic Column—Length about 15 cm, inside diameter about 4.6 mm, packed with Inertsil ODS2, 5 μm size particles or equivalent.
Detector—Ultraviolet spectrophotometric detector capable of operating at 248 nm with a sensitivity of about 0.5 absorbance units full scale.
The results of additional studies to investigate the effect of processing parameters such as temperature, time, and dissolved oxygen content on the purity profile of tigecycline solutions using the following materials, methods and procedures are presented in Tables A to O.
The experiments were run in plastic glove bags under normal laboratory light conditions. Plastic glove boxes will be used to control the headspace of the beakers. The batch size was 200 mL. • 1. Prepare the glove bag with a mixture of nitrogen and air to achieve an oxygen level in the solution as per the design. • 2. Place the jacketed beaker on the magnetic stirrer. Connect it to the cooler. Set the cooler to the desired set point. • 3. Add 200 mL of SWFI in to the beaker. Allow equilibrating. Measure the temperature and oxygen content. When it reaches the desired condition, add accurately weighed API and mix until dissolved. If necessary use spatula to aid dissolution. For pH adjustments, use 4 mL of either 0.1N NaOH or 0.1N HCl and 196 mL of WFI for manufacture. • 4. After complete dissolution, Transfer about 5.5 mL of Solution in vials and stopper them. These vials will be stoppered at the appropriate headspace conditions. Place the vials in appropriate temperature conditions. • 5. Sample the vials at 1, 4, 8, 10, 12 and 24 hours. Send the samples for analysis. Freeze the 10, 12 and 24 samples at −20° C. for analysis the following day. • 6. Measure pH and record color of the solution at each time point. Results
The 1-hour samples were taken directly from the beakers. Samples for later time points were collected in stoppered vials processed in the atmosphere of the bag in order to simulate the headspace conditions then placed in water baths or refrigerator to maintain there respective temperature conditions. This was done to maintain safety in the lab. Disposable plastic glove bags require constant flow of a mixture of nitrogen and air to maintain headspace oxygen level that will result in the desired dissolved oxygen (DO) content in the sample. The pH of samples was measured at each sample points.
Strength and degradation profile was analyzed by HPLC as described above. […] Degradation was slightly higher at higher temperature condition.

[1] = Run #I, 5° C., pH 7.9, Oxygen 1.0 mg/L, hours 1,4,8,10,12,24 at r6-r11, 24 h
[2] = Run #I, 5° C., pH 7.9, Oxygen 1.0 mg/L, hours 1,4,8,10,12,24 at r17-r22
[3] = Run #I, 5° C., pH 7.9, Oxygen 1.0 mg/L, hours 1,4,8,10,12,24 at r17-r22, 1 h
[4] = Run #I, 5° C., pH 7.9, Oxygen 1.0 mg/L, hours 1,4,8,10,12,24 at r17-r22, 4 h
[5] = Run #I, 5° C., pH 7.9, Oxygen 1.0 mg/L, hours 1,4,8,10,12,24 at r17-r22, 8 h
[6] = Run #I, 5° C., pH 7.9, Oxygen 1.0 mg/L, hours 1,4,8,10,12,24 at r17-r22, 10 h
[7] = Run #I, 5° C., pH 7.9, Oxygen 1.0 mg/L, hours 1,4,8,10,12,24 at r17-r22, 24 h
[8] = Run #J, 8° C., Oxygen = 1.0 mg/mL, hours 1,4,8,12,24 at r6-r10, 1 hours
[9] = Run #J, 8° C., Oxygen = 1.0 mg/mL, hours 1,4,8,12,24 at r6-r10, 4 hours
[10] = Run #J, 8° C., Oxygen = 1.0 mg/mL, hours 1,4,8,12,24 at r6-r10, 8 hours
[11] = Run #J, 8° C., Oxygen = 1.0 mg/mL, hours 1,4,8,12,24 at r6-r10, 12 hours
[12] = Run #J, 8° C., Oxygen = 1.0 mg/mL, hours 1,4,8,12,24 at r6-r10, 24 hours
[13] = Run #J, 8° C., hours 1,4,8,12,24 at r6-r10, 1 hours
[14] = Run #J, 8° C., hours 1,4,8,12,24 at r6-r10, 4 hours
[15] = Run #J, 8° C., hours 1,4,8,12,24 at r6-r10, 8 hours
[16] = Run #J, 8° C., hours 1,4,8,12,24 at r6-r10, 12 hours
[17] = Run #J, 8° C., hours 1,4,8,12,24 at r6-r10, 24 hours
[18] = Run #K, 2° C., pH 8.2, Oxygen 0.1 mg/L, hours 1,4,8,10,12,24 at r6-r11
[19] = Run #K, 2° C., pH 8.2, Oxygen 0.1 mg/L, hours 1,4,8,10,12,24 at r6-r11, after 1 hours
[20] = Run #K, 2° C., pH 8.2, Oxygen 0.1 mg/L, hours 1,4,8,10,12,24 at r6-r11, after 4 hours
[21] = Run #K, 2° C., pH 8.2, Oxygen 0.1 mg/L, hours 1,4,8,10,12,24 at r6-r11, after 8 hours
[22] = Run #K, 2° C., pH 8.2, Oxygen 0.1 mg/L, hours 1,4,8,10,12,24 at r6-r11, after 10 hours
[23] = Run #K, 2° C., pH 8.2, Oxygen 0.1 mg/L, hours 1,4,8,10,12,24 at r6-r11, after 12 hours

In the case of `CN(C)c1cc(NC(=O)CNC(C)(C)C)c(O)c2c1C[C@H]1C[C@H]3[C@H](N(C)C)C(O)=C(C(N)=O)C(=O)[C@@]3(O)C(O)=C1C2=O` [Tigecycline], the Strength (Run #I, 5° C., pH 7.9, Oxygen 1.0 mg/L, hours 1,4,8,10,12,24 at r6-r11, 12 h) is reported as 19.151 mg/mL, the “RRT 0.58” value [1] is reported as 0.10% and the “RRT 0.74 Epimer” value [1] is reported as 0.23%. For the same compound, the Strength [1] was 19.242 mg/mL, the “RRT 0.78 MW = 557” value [2] was “BRL (BRL means below reporting limit (meaning less than 0.05% of tigecycline peak))” and the “RRT 1.12” value [2] was “BRL (BRL means below reporting limit (meaning less than 0.05% of tigecycline peak))”. For the same compound, the “RRT 1.64 Mino” value [3] was 0.13%, the “RRT 1.85 MW = 597” value [3] was 0.06% and the Total [3] was 0.54%. The “RRT 1.64 Mino” value [4] was 0.10%, the “RRT 1.85 MW = 597” value [4] was 0.09% and the “RRT 1.64 Mino” value [5] was 0.09%. The “RRT 1.85 MW = 597” value [5] was 0.08%, the Total [5] was 0.53% and the “RRT 1.64 Mino” value [6] was 0.08%. The “RRT 1.85 MW = 597” value [6] was 0.10%, the Total [6] was 0.98% and the Total (Run #I, 5° C., pH 7.9, Oxygen 1.0 mg/L, hours 1,4,8,10,12,24 at r17-r22, 12 h) was 0.71%. For the same compound, the “RRT 1.64 Mino” value [7] was 0.11%, the Total [7] was 0.96% and the “RRT 1.67 MW = 556” value [8] was 0.09%. The Strength [8] was 19.515 mg/mL, the “RRT 1.67 MW = 556” value [9] was 0.17% and the Strength [9] was 19.469 mg/mL. For the same compound, the “RRT 1.67 MW = 556” value [10] was 0.15%, the Strength [10] was 19.323 mg/mL and the “RRT 1.67 MW = 556” value [11] was 0.19%. The Strength [11] was 19.140 mg/mL, the “RRT 1.67 MW = 556” value [12] was 0.21% and the Strength [12] was 19.152 mg/mL. The “RRT 0.58” value [13] was 0.06%, the “RRT 0.74 Epimer” value [13] was 0.20% and the “RRT 1.45” value [13] was 0.08%. The “RRT 1.85 MW = 597” value [13] was 0.09%, the Total [13] was 0.62% and the “RRT 0.74 Epimer” value [14] was 0.22%. The “RRT 1.45” value [14] was 0.06%, the “RRT 1.64 Mino” value [14] was 0.09% and the “RRT 1.85 MW = 597” value [14] was 0.08%. For the same compound, the Total [14] was 0.90%, the “RRT 1.45” value [15] was 0.07% and the Total [15] was 1.00%. For the same compound, the “RRT 0.74 Epimer” value [16] was 0.24%, the “RRT 1.64 Mino” value [16] was 0.10% and the “RRT 1.85 MW = 597” value [16] was 0.11%. The Total [16] was 1.17%, the “RRT 0.58” value [17] was 0.08% and the “RRT 0.74 Epimer” value [17] was 0.28%. For the same compound, the “RRT 1.45” value [17] was 0.05%, the “RRT 1.64 Mino” value [17] was 0.11% and the “RRT 1.85 MW = 597” value [17] was 0.10%. The Total [17] was 1.76%, the “RRT 0.12 MW = 633” value [18] was “BRL (BRL means below reporting limit (meaning less than 0.05% of tigecycline peak))” and the “RRT 0.23 MW = 572” value [18] was “BRL (BRL means below reporting limit (meaning less than 0.05% of tigecycline peak))”. The “RRT 0.50 MW = 601” value [18] was “BRL (BRL means below reporting limit (meaning less than 0.05% of tigecycline peak))”, the “RRT 0.55 MW = 583” value [18] was “BRL (BRL means below reporting limit (meaning less than 0.05% of tigecycline peak))” and the “RRT 0.64 9-Amino” value [18] was “BRL (BRL means below reporting limit (meaning less than 0.05% of tigecycline peak))”. The “RRT 0.78 MW = 557” value [18] was “BRL (BRL means below reporting limit (meaning less than 0.05% of tigecycline peak))”, the “RRT 1.12” value [18] was “BRL (BRL means below reporting limit (meaning less than 0.05% of tigecycline peak))” and the “RRT 1.58” value [18] was “BRL (BRL means below reporting limit (meaning less than 0.05% of tigecycline peak))”. For the same compound, the “RRT 1.67 MW = 556” value [18] was “BRL (BRL means below reporting limit (meaning less than 0.05% of tigecycline peak))”, the “RRT 0.74 Epimer” value [19] was 0.16% and the “RRT 1.64 Mino” value [19] was 0.12%. The Strength [19] was 19.187 mg/mL, the Total [19] was 0.51% and the “RRT 0.74 Epimer” value [20] was 0.18%. The “RRT 1.64 Mino” value [20] was 0.13%, the Strength [20] was 19.324 mg/mL and the Total [20] was 0.61%. For the same compound, the “RRT 0.58” value [21] was 0.07%, the Strength [21] was 19.127 mg/mL and the Total [21] was 0.63%. The “RRT 0.74 Epimer” value [22] was 0.19%, the “RRT 1.64 Mino” value [22] was 0.15% and the “RRT 1.85 MW = 597” value [22] was 0.10%. The Strength [22] was 20.357 mg/mL, the Total [22] was 0.59% and the “RRT 0.58” value [23] was 0.08%. For the same compound, the “RRT 0.74 Epimer” value [23] was 0.22%, the “RRT 1.45” value [23] was 0.09% and the “RRT 1.64 Mino” value [23] was 0.10%. The “RRT 1.85 MW = 597” value [23] was 0.09%, the Strength [23] was 19.956 mg/mL and the Total [23] was 0.56%.
